Measurements from patent publication US20020168417A1, “Agrochemical compositions and surfactant compounds” (priority 1999, published 2002).
Where two headings read alike, the source gives them in different places.

What was measured:
Daphnia magna = experiment: aquatic toxicity to Daphnia magna, standard bio-assay; type: in vivo; details: end of the 48 hour assay procedure
From the text: The results are given below:

[1] = in vivo
Experimental: (§1) The irritancy of the products of some of the synthesis examples (if necessary after purification) was tested using standard testing protocols.

[2] = in vivo; remark: listed apart in the source
Experimental: as §1

[3] = system: fungal leaf rust (Puccinia recondite); experiment: AE5 field trial, tebuconazole fungicide with adjuvant on winter wheat leaf rust; type: in vivo; details: infected leaf area
Experimental: Field trials were carried out to test the effectiveness of fungicide on winter wheat (variety Versailles) using the active Horizon EW (tebuconazole) (250 g.I^−1) in the control of fungal leaf rust (Puccinia recondite). The plots were sprayed at a spray volume 300 I.ha^−1, with the adjuvants added as tank mix additives at a concentration of 0.1% weightivolume on the spray. The normal application rate (NAR) for Horizon alone is 1 I.ha^−1 (250 g.ha^−1) and this was used as a control together with 0.75 I.ha^−1 (187.5 g.ha^−1; […]). An untreated control was also included. For these trials, adjuvant containing formulations were at ¾ NAR for the active and 0.1% weight/volume (300 g.ha^−1) adjuvant The effect of the spraying was assessed 3 weeks after treatment and is expressed as % infected leaf area (2 and 3 top leaves).

[4] = irritancy, standard testing protocols: skin; details: in vivo
Experimental: as §1

[5] = irritancy, standard testing protocols: eye; details: in vivo
Experimental: as §1

[6] = tebuconazole 187.5 g · ha^−1, adjuvant (where used) 300 g · ha^−1, 3 weeks after treatment
[7] = tebuconazole 250 g · ha^−1, adjuvant (where used) 300 g · ha^−1, 3 weeks after treatment

Compound	EC50 for immobilising the Daphnia (Daphnia magna) [mg.I^−1]	Irritation assessment Skin [1]	Irritation assessment Eye [2]	further results
1-(N-1-deoxyglucitylamino)2-hydroxyl-3-(branched octadecyloxy poly-10PO-10EO) propane [SE21]	31.4	slight/moderate	practically none/slight	
CC(C)(C)C(O)(CCc1ccc(Cl)cc1)Cn1cncn1 (racemic) [tebuconazole, (RS)1-p-chlorophenyl4,4-dimethyl-3-(1H-1,2,4triazole-1-ylmethyl)-pentan-3ol]				% infected 2 leaf [3, 6]: 2.5%; % infected 3 leaf [3, 6]: 10%; % infected 2 leaf [3, 7]: 2.5%; % infected 3 leaf [3, 7]: 2.5%
CCCCCCCCCCCCCCOCC(O)CN(CC(O)C(O)C(O)C(O)CO)CC(O)C(O)C(O)C(O)CO (centres unmarked) [SE20, 1-(N-bis-sorbitylamino)2-hydroxyl-3-tetradecyloxy propane]	>100			
CCCCCCCCCCOCC(O)CN(C)C[C@H](O)[C@@H](O)[C@H](O)[C@H](O)CO (some centres unmarked) [SE10, 1-(N-methyl-N-1-deoxyglucitylamino)2-hydroxy-3-decyloxy propane]		practically none	moderate/severe	
Betaine from 1-(N-1-deoxyglucitylamino)-2-hydroxy-3-dodecyloxy Propane [SE23]				Irritation assessment Skin [4]: slight; Irritation assessment Eye [5]: moderate
1-(N,N-bis(N-1-deoxyglucitylamino)amonium)-2-hydroxy-3-dodecyloxy Propane Sulphate [SE25]		slight	moderate	
